Source: patent US20130303564A1, “METHOD FOR TREATING A NEURODEGENERATIVE DISORDER” (RUSH UNIVERSITY MEDICAL CENTER, priority 2012, published 2013)

How the values were obtained:
NF-κB = assay: Transcriptional activity of NF-κB (PBIIX-Luc reporter) in BV-2 microglial cells; format: cell-based, mouse; settings: co-incubated with NaPB 6 h
Experimental: Transcriptional activity of NF-κB: Transcriptional activity of NF-κB was assayed. […] After 24 h of transfection, […], and firefly and Renilla luciferase activities were recorded in a TD-20/20 Luminometer (Turner Designs, Sunnyvale, Calif.) by analyzing total cell extract according to standard instructions provided in the Dual Luciferase Kit (Promega), Relative luciferase activity of cell extracts was typically represented as (firefly luciferase value/Renilta luciferase value)×10^−3.

BV-2 microglial cells = assay: Superoxide production in microglial cells; format: cell-based, mouse; settings: co-incubated with NaPB 6 h, then LPS 10 min
Source text: Results represent three independent experiments.
Superoxide measurements: Superoxide production was detected by LumiMax™ Superoxide Anion Detection Kit (Stratagene) as described by us (30).

cholesterol = assay: Serum cholesterol in male C57/BL6 mice; format: in vivo, mouse; settings: 1 mg/kg body wt/d via gavage, 7 d
Experimental: Mice (6-8 wk old) were treated with NaPB (200 mg/kg body wt/d) and pravastatin (1 mg/kg body wt/d) separately via gavage for 7 d followed by quantification of cholesterol in serum using a simple fluorometric method.
Intermediates of the mevalonate pathway play a role in the expression of iNOS and proinflammatory cytokines in glial cells. End product of the mevalonate pathway is cholesterol and therefore, we investigated if NaPB had any effect on the level of cholesterol in vivo in mice.
Assay of cholesterol in serum: Total cholesterol was quantified irr serum by using an Amplex Red Cholesterol Assay kit from Invitrogen. Briefly, cholesterol was oxidized by cholesterol oxidase to yield H2O2, which then reacted with 10-acetyl-3,7 dihydroxyphenoxazine (Amplex Red). In the presence of horseradish peroxidase (HRP), this Amplex Red:H2O2 complex produced highly fluorescent resorufin, which was detected by fluorometry.

primary mouse microglia = assay: LPS-induced NO (nitrite) production in primary mouse microglia; format: cell-based; settings: other HDAC inhibitors, different concentrations, 6 h preincubation, LPS 24 h
Experimental: Primary mouse microglia were treated with different concentrations of NaPB for 6 h followed by stimulation with LPS under serum-free condition. After 24 h of stimulation, concentrations of nitrite were measured in supernatants (A) and the level of iNOS protein was monitored in cells by Western blot (B). […] After 5 h of stimulation, the expression of iNOS mRNA was monitored by semi-quantitative RT-PCR (C). Cells preinctibated with different concentration of trichostatin A (TSA) and sodium butyrate (NaBu) for 6 h were stimulated with LPS for 24 h under serum-free condition followed by monitoring the level of nitrite in supernatants (p). […] Primary human astroglia isolated from fetal brain tissues were treated with different concentrations of NaPB for 6 h followed by stimulation with IL-1β under serum-free condition. After 48 h of stimulation, concentrations of nitrite (E) were measured in supernatants. Human astroglia plated at 70-80% confluence in 12-well plates were co-transfected with 0.25 μg of phiNOS(7.2)Luc and 12.5 ng of pRL-TK using the Lipofectamine-Plus (Invitrogen). Twenty-four h after transfection, cells received NaPB. After 6 h of incubation, cells were stimulated with IL-1β (20 ng/ml) for 12 h. Firefly (ff-Luc) and Renilla (r-Luc) luciferase activities were obtained by analyzing the total cell extract (F).
Activated microglia and astroglia are known to produce excessive amount of NO having the potential of damaging neurons in neurodegenerative disorders. We investigated the effect of NaPB on the expression of iNOS in microglia. LPS is a prototype inducer of various proinflammatory molecules in different cell types including mouse microglia. Therefore, primary mouse microglia preincubated with different doses of NaPB for 6 h were stimulated with LPS under serum-free condition. […] We used trichostatin A (TSA) and sodium butyrate (NaBu) for this purpose.
Isolation of Mouse Microglia: Microglia were isolated from mixed glial cultures. Briefly, on day 7-9, the mixed glial cultures were washed three times with Dulbecco's modified Eagle's medium/F-12 and subjected to shaking at 240 rpm for 2 h at 37° C. on a rotary shaker. The floating cells were washed and seeded on to plastic tissue culture flasks and incubated at 37° C. for 1 h. The attached cells were seeded onto new plates for further studies. […] Mouse BV-2 microglial cells (kind gift from Virginia Bocchini of Universityof Perugia) were also maintained and induced as indicated above.

Row | Structure (SMILES) | effect on NaPB-mediated inhibition of NF-κB activation (NF-κB) | effect on NaPB-mediated inhibition of superoxide production (BV-2 microglial cells) | reduction of the level of cholesterol in serum (cholesterol) [%] | effect on LPS-induced production of NO (primary mouse microglia)
1 | CC(C)(CO[P@@](=O)(O)O[P@@](=O)(O)OC[C@H]1O[C@@H](n2cnc3c(N)ncnc32)[C@H](O)[C@@H]1OP(=O)(O)O)[C@@H](O)C(=O)NCCC(=O)NCCSC(=O)C[C@@](C)(O)CC(=O)O [HMG-CoA] | abrogated the inhibitory effect of NaPB | abolished the inhibitory effect of NaPB | – | –
2 | CC(C)CCC[C@@H](C)[C@H]1CC[C@H]2[C@@H]3CC=C4C[C@@H](O)CC[C@]4(C)[C@H]3CC[C@]12C [cholesterol] | had no effect | had no effect | – | –
3 | CC(C)=CCC/C(C)=C/CC/C(C)=C/CC/C(C)=C/COP(=O)(O)OP(=O)(O)O [GGPP, geranylgeranyl pyrophosphate] | abrogated the inhibitory effect of NaPB | abolished the inhibitory effect of NaPB | – | –
4 | CC[C@H](C)C(=O)O[C@H]1C[C@H](O)C=C2C=C[C@H](C)[C@H](CC[C@@H](O)C[C@@H](O)CC(=O)O)[C@H]21 [pravastatin] | – | – | ~29 | –
5 | CCCC(=O)[O-].[Na+] [NaBu, sodium butyrate] | – | – | – | stimulated
6 | CC(C)=CCC/C(C)=C/CC/C(C)=C/COP(=O)(O)OP(=O)(O)O [FPP, farnesyl pyrophosphate] | abrogated the inhibitory effect of NaPB | – | – | –
7 | CC(O)(CCO)CC(=O)O (centres unmarked) [mevalonate] | abrogated the inhibitory effect of NaPB | abolished the inhibitory effect of NaPB | – | –
8 | CC(/C=C/C(=O)NO)=C\[C@@H](C)C(=O)c1ccc(N(C)C)cc1 [TSA, trichostatin A] | – | – | – | attenuated
9 | COC1=C(OC)C(=O)C(C/C=C(\C)CC/C=C(\C)CC/C=C(\C)CC/C=C(\C)CC/C=C(\C)CC/C=C(\C)CC/C=C(\C)CC/C=C(\C)CC/C=C(\C)CCC=C(C)C)=C(C)C1=O [coenzyme Q] | had no effect | had no effect | – | –
